Reference: patent publication US20230130103A1, “TARGETED PHARMACOLOGICAL THERAPEUTICS IN UVEAL MELANOMA” (Washington University, priority 2017, published 2023)
Starred links: 1 amine or outer side, 2 acyl side, 3 side chain; linkers in the order of their positions; H or OH if unused. Positions of bridges follow the written chain, without caps; N, C: chain ends. Non-standard residues stand in square brackets, D forms with d. Residues, ends and D or L forms follow the SMILES beside them. *: point of attachment. Leu(3R-OH,Nα-propionyl) = CCC(=O)N[C@H](C(=O)*)[C@H](O)C(C)C; X1 = CC(C)[C@@H](O[*:3])[C@H](N[*:1])C(=O)[*:2]; X2 = CC(C)[C@H](O[*:3])[C@@H](N[*:1])C(=O)[*:2]; NMeaThr = CN[C@H](C(=O)O)[C@H](C)O; dPhLac = O=C(O)[C@H](O)Cc1ccccc1; NMeA = CN[C@@H](C)C(=O)O; NMeDha = C=C(NC)C(=O)O

Tested on: 92.1 cells
Test: Flow cytometry of DNA content (proliferation and apoptosis)
Settings: 3 d, FIG. 4C-D
Method: Cells were cultured at 37.0 in 5% CO2. […] Cell lines were grown in RPMI 1640 medium (Life Technologies, Carlsbad, Calif.) supplemented with 10% FBS and antibiotics. Cell viability was measured using a water-soluble tetrazolium salt, WTS-8 (Bimake, Houston, Tex.), following the manufacturer's protocol. Flow cytometry for analysis of cell proliferation and apoptosis was performed at the Siteman Cancer Center Flow Cytometry Core on a FACScan analyzer (BD Biosciences, San Diego Calif., USA) using a standard propidium iodide staining protocol as described previously (44).

With `C=C1C(=O)N[C@@H](C)C(=O)N(C)[C@@H](C)C(=O)N[C@H]([C@@H](OC(=O)[C@@H](NC(=O)CC)[C@H](O)C(C)C)C(C)C)C(=O)N(C)[C@@H]([C@H](C)OC)C(=O)O[C@H](C(C)C)[C@H](NC(C)=O)C(=O)O[C@H](Cc2ccccc2)C(=O)N1C` [FR, [(1S)-1-[(3S,6R,9S,12S,18R,21S,22R)-21-acetamido-18-benzyl-3-[(1S)-1-methoxyethyl]-4,9,10,12,16-pentamethyl-15-methylidene-2,5,8,11,14,17,20-heptaoxo-22-propan-2-yl-1,19-dioxa-4,7,10,13,16-pentazacyclodocos-6-yl]-2-methylpropyl] (2S,3R)-3-hydroxy-4-methyl-2-(propanoylamino)pentanoate] (Ac-[X1][dPhLac][NMeDha]A[NMeA][X2](Leu(3R-OH,Nα-propionyl))[NMeaThr](Me); ester 1-C) the “apoptosis (sub-G1/G0 cells)” value was “increased levels of sub-G1/G0 cells” and the “cell cycle inhibition (decreased levels of S- and G2/M-phase cells)” value was “induced cell cycle inhibition”.
